Reference: a melting point compilation (Tetko et al.; mined from patent text by program, amines drawn as free bases though some values may be those of a salt)

| SMILES | melting point [°C] |
| --- | --- |
| CCCC12CCC3C4CCCC=C4CCC3C1CCC2=O (stereo unspecified) | 89 to 90 |
| COc1nc2ccc(Br)cc2cc1C(c1ccccc1)n1cccn1 (stereo unspecified) | 142 to 144 |
| CN1CCC(OC(c2ccccc2)c2nc3ccccc3s2)CC1 (stereo unspecified) | 115 |
| CCc1cc(N(C)Cc2ccc3oc(-c4ccccc4C#N)c(Br)c3c2)n2nccc2n1 | 130 to 136 |
| O=C1c2cccc3cccc(c23)C(=O)N1CCCCCBr | 113 to 115 |
| O=C1Cc2c(CCO)cccc2N1 | 145 to 147 |
| CC1(C)[C@@H](CNC(=O)C2CCC(F)(F)CC2)CC[C@@]1(C)NCC(=O)N1C[C@@H](F)C[C@H]1C#N | 193 to 195 |
| Nc1nc2c(s1)CC(NC(=O)[C@@H]1CCCN1C(=O)CNC(c1ccccc1)(c1ccccc1)c1ccccc1)CC2 (stereo partly specified) | 125 to 128 |
| O=CC(=Cc1ccc(OC(=O)c2ccccc2F)cc1)C(C=O)=Cc1ccc(OC(=O)c2ccccc2F)cc1 | 197 to 199 |
| O=C1Nc2ccccc2/C1=C/c1c[nH]c2ncccc12 | > 280 |
| CCN(Cc1cccs1)C(=O)C12CC3CC(CC(C3)C1)C2 | 103 to 105 |
| Nc1nc2ccccc2c2c1nc(CC1CC1)n2CCOc1ccccc1 | 192 to 193 |
| N#CCC(=O)c1ccc(C(F)(F)F)cc1[N+](=O)[O-] | 79.5 to 80.5 |
| CC(C)(C)S(=O)(=O)c1cccc(-c2nc(=O)c3ccccc3s2)n1 | 234 to 235 |
| Cn1c(COc2ccc(CC3SC(=O)N(C(c4ccccc4)(c4ccccc4)c4ccccc4)C3=O)cc2)cc2ccccc21 (stereo unspecified) | 134 to 136 |
| O=c1[nH]c2ccc(Cl)cc2n1CCN1CCCCC1 | 156 to 158 |
| Cc1cc(C)c(C)c(COc2cccc(-c3ccoc3C(=O)NNC(=O)c3ccc(O)c([N+](=O)[O-])c3)c2)c1C | 140 to 142 |
| COc1c(C)cc(-c2[nH]c3ccccc3c2C)cc1C | 108 to 110 |
| CC12CCC3c4ccc(C(=O)O)cc4CCC3C1CCC2C(=O)CCc1ccc(O)cc1 (stereo unspecified) | 197 |
| O=c1cc(-c2cc(OCc3ccccc3)cc(OCc3ccccc3)c2)oc2cc(OCC3CO3)ccc12 (stereo unspecified) | 172 to 173 |
| COc1ccc2nc(C)cc(NNC(=O)Nc3ccc(N(CCCl)CCCl)cc3)c2c1 | 184 to 186 |
| Cc1nn(-c2cc(Oc3ccc(N)cc3)c(Cl)cc2F)c(=O)n1C(F)F | 133 to 135 |

| SMILES | melting point [°C] |
| --- | --- |
| N#Cc1cc(O)cc2nc(-c3ccc(O)c(F)c3)oc12 | 308 to 310 |
| Cn1cc(C(=O)Nc2ccccc2OC(F)(F)C(F)Cl)c(C(F)(F)F)n1 (stereo unspecified) | 94 to 95 |
| COc1cc2c(cc1Nc1ncc(Cl)c(Nc3ccc(N4CCOCC4)cc3OC)n1)CCN(C[C@H](O)C(F)(F)F)CC2 | 95 to 102 |
| O=c1cc(-c2ccccc2)oc2cc(OCCCCCCN3CCC(O)CC3)ccc12 | 130 to 131 |
| O=C(NCCNCC1COc2ccccc2O1)C12CC3CC(CC1C3)C2 (stereo unspecified) | 143 to 144 |
| CN(C)c1cnn(-c2ccccc2)c(=O)c1N | 188 to 189 |
| CC(C)(C)c1nc(C(O)CCC2CCNCC2)c2ccccc2n1 (stereo unspecified) | 110 |
| COC(=C[N+](=O)[O-])NCc1cccnc1 | 129 to 130 |
| CC(Oc1ccc(Oc2ccc(Oc3ccc(OC(C)C(=O)O)cc3)cc2)cc1)C(=O)O (stereo unspecified) | 135 to 136 |
| N#Cc1cccc2c1CC(=NN)c1cccc(F)c1S2 | 203 to 206 |
| N#CCc1c(Cl)nc(-c2ccccc2)n1Cc1ccccc1 | 121 to 122 |
| Cn1c(C(F)(F)F)cc(=O)n(-c2cc(F)c([N+](=O)[O-])cc2F)c1=O | 150 |
| O=S(=O)(Nc1ccc2c(OCc3csc(-c4ccccc4Cl)n3)cccc2c1)C(F)(F)F | 128 to 129 |
| OCC1CNCCC1c1ccc(F)cc1 (stereo unspecified) | 123 to 124 |
| O=C(c1ccc(Cl)cc1)c1ccc([N+](=O)[O-])cc1Cl | 117 to 118 |
| Nn1c(C(F)(F)F)cc(=O)n(-c2ccc(O)cc2)c1=O | 150 to 155 |
| Cc1nc2c(N)nc3cccnc3c2n1CC(C)C | 228 to 230 |
| O=C(O)c1ccc2nc3sc(-c4ccccc4)cc3c(=O)n2c1 | 387 to 392 |
| COC(=O)c1cccc2nc(N3CCOCC3)n(Cc3ccc(-c4ccccc4-c4nnn[nH]4)cc3)c12 | 163 to 167 |
| C[C@@H](C(N)=O)c1ccc(NS(=O)(=O)Cc2ccccc2)cc1 | 68 to 70 |
| COCCN1CCc2ccc(Nc3ncc(Cl)c(Nc4ccc(OC)c5c4C(=O)N(C)C5)n3)cc2CC1 | 206 to 207 |
| O=c1[nH]c2ccccc2c2ccc3nc(Nc4c(Cl)cccc4Cl)[nH]c3c12 | > 300 |

| SMILES | melting point [°C] |
| --- | --- |
| CC1(CC(=O)N2CCC([C@H]3c4ncc(Br)cc4CCc4cc(Cl)cc(Br)c43)CC2)C=CN(S(C)(=O)=O)C=C1 | 105 to 109 |
| OC(Cc1ccccc1)c1nc(-c2ccncc2)cs1 (stereo unspecified) | 120 to 122 |
| CCN(CC)CC1CCCCN1CC(C)(C)NC(=O)N1c2ccccc2C(=O)Nc2cccnc21 (stereo unspecified) | 160 to 162 |
| Cc1cc(C)c2c3c([nH]c2c1)C(=O)N=NC3=O | > 250 |
| O=c1nc(N2CCN(c3ccc(Cl)cc3)CC2)sc2c([N+](=O)[O-])cc([N+](=O)[O-])cc12 | 178 to 180 |
| COC(=O)C1C(c2ccc(I)cc2)CC2CCC1N2C (stereo unspecified) | 101 to 102 |
| CCCc1nn(C)c2c(=O)[nH]c(Cc3ccc(N(CC)CC)cc3)nc12 | 201 to 203 |
| CCCN(CCC)c1nc2c(N3CCSCC3)nccc2c(=O)[nH]1 | 226 |
| CC(C)Cc1cc(OCc2ccccc2)c2c(c1)OC(C)(C)CC2C(=O)Oc1ccc([N+](=O)[O-])cc1 (stereo unspecified) | 125 to 126 |
| Cc1cc2c(cc1C)C(=O)C(C#N)C2=O | 209 to 210 |
| C[C@H](CO)CN1CCC(c2noc3cc(F)ccc23)CC1 | 119 to 121 |
| CC1CCN(c2occ(C(C)(C)C)c2C#N)C1=O (stereo unspecified) | 88 to 90 |
| CCCCCCCCC(O)Cc1ccc(OCc2ccccc2)c(OCc2ccccc2)c1 (stereo unspecified) | 55 to 57 |
| CC1(C)N=C(NC#N)N=C(NC(=O)c2nc(Cl)c(N)nc2N)N1 | 342 |
| NC(=O)NC(=O)c1nc(Cl)c(Cl)[nH]1 | > 290 |
| O=C1CC2(CCCC2)c2ccc(Cl)cc21 | 54 |
| O=c1cc(C(F)(F)F)[nH]n1-c1cccc([N+](=O)[O-])c1 | 166 |
| CC(C)(C)NC(=O)N1Cc2c(-c3ccc(F)cc3)ncn2-c2ccccc21 | 241 to 244 |
| Nc1ccc(-c2ncnn2-c2ccc(Br)cc2)cc1 | 128 to 130 |
| Cc1cccc2c1C=Cc1ccccc1C2Cl (stereo unspecified) | 158 to 160 |

Continued, values first:

| melting point [°C] | SMILES |
| --- | --- |
| 147 to 149 | Cc1ccc(CNC(=O)C(=O)NCCc2ccccn2)n1C |
| 62 to 63 | COC(=O)c1nc(OC)n(C)c1C(=O)OC |
| 112 to 114 | COc1cc(C(=O)N(C(C)C)C(C)C)ccc1OCCCCCOc1ccc(C=NN)cc1 |
| 67 to 69 | COc1ccc(C=C(Br)Br)cc1OC(C)C |
| 114 | CCOC(=O)c1cnc2c(F)c(F)ccc2c1Cl |
| 126 | CCOC(=O)Nc1nc(C)co1 |
| 96 to 97 | C=CCOc1ccc(S(=O)(=O)Nc2ccc(Cl)cc2C(=O)c2ccccc2Cl)cc1 |
| 82 to 84 | CCOC(=O)c1c(-c2ccccc2)c2c3ccccc3ccn2c1C(C)C |
| 153 to 155 | COC(=O)c1ccc(Cc2c[nH]c3ccc([N+](=O)[O-])cc23)c(OC)c1 |
| 188 to 190 | CCOCc1nc2c(N)nc(C)c(C)c2n1CCNC(=O)NC1CCCCC1 |
| 156 to 160 | CCOCc1nc2c(N)nc(C)cc2n1CCCCNC(=O)N1CCOCC1 |
| 135 to 138 | CC(=O)OCc1cc2c(Cl)ccc(-n3c(=O)cc(C(F)(F)F)n(C)c3=O)c2o1 |
| 107 to 109 | COc1cc(Br)ccc1Oc1ccccc1O |
| 54 | CCCCNC(=O)n1sc(OCC)nc1=O |
| 65 to 85 | CC(C)(C)c1ccc(O)c(CO)c1 |
| 213 to 215 | Cc1nc(-c2cccc(C(=O)c3ccccc3)c2)sc1C(=O)O |
| 150 to 159 | CCNC(=O)C=CC(C)=CC=C(C)c1ccc2c(c1)C(C)(C)CCC2(C)C |
| 152 to 156 | COc1ccc(C(N)=O)c(N)c1 |
| 182 | CCOC(=O)N1CCc2nc3cccc(N)c3c(C)c2CC1 |

| melting point [°C] | SMILES |
| --- | --- |
| 119 to 121 | CC(=O)c1ccc(S(=O)(=O)NCCO)cc1 |
| 113 to 115 | COc1cc2c(cc1NN)oc1ccccc12 |
| 105 to 107 | CN(C)C(=O)N(C(=O)Nc1ccccc1)c1ccccc1 |
| 175 to 177 | CNc1nc(-c2cccc(NC(=O)Cc3ccccc3)c2)c2cc(OC)c(OC)cc2n1 |
| 157 to 158 | COc1cc(C(C)C)c2c(c1)S(=O)(=O)N(COC(=O)c1cc(C)no1)C2=O |
| 184 to 186 | CCOC(=O)c1cn(C2CC2)c2nc(N3CCN(C(=O)OCC)CC3)c(F)cc2c1=O |
| 60 to 61 | CCCc1c(OCCCOc2cc(O)c(-c3cocn3)cc2CC)cccc1Oc1ccccc1C(=O)O |
| 48 to 49 | CCCCC(CC)Nc1cc(C)nc(Cl)c1[N+](=O)[O-] (stereo unspecified) |
| 141 to 143 | CCOC(=O)C1=C(C)NC(c2csc(Cl)n2)=NC1c1ccc(F)cc1Cl (stereo unspecified) |
| 87 to 89 | CCOC(=O)c1c(C(F)(F)F)nc(C(F)F)c(C(=O)OC)c1NCC#N |
| 184 to 186 | CCCc1c(C(=O)NCc2ccc(-c3ccc(O)c(Br)c3)cc2)cnn1-c1ccccc1 |
| 242 to 245 | CN1C(C(=O)Nc2cccccc2=O)=C(O)c2sccc2S1(=O)=O |
| 149 to 150 | CSc1c(C(=O)O)ccc(F)c1F |
| 130 | CCCNC(=S)c1ccc2c(c1)N(C(C)CN(CC)CC)c1ccc(Cl)cc1S2 (racemic) |
| 75 | O=C(CCCCOCc1ccccc1)c1ccc([N+](=O)[O-])cc1 |
| 180 to 181 | CCCCNC(=O)C(=O)Nc1ccc(OC)cc1N |
| 116 to 122 | COC(=O)c1ccc(-c2ccc(OC)c3c2CC(C)(C)O3)cc1 |
| 218 to 220 | Cc1nc(-n2ccccc2=O)sc1C(=O)NCc1cccnc1 |
